Experimental data as given in patent publication US20230416227A1, “PLASMA KALLIKREIN INHIBITORS” (Merck Sharp & Dohme LLC, priority 2020, published 2023).

molecular target: T1, Human plasma kallikrein (Homo sapiens, UniProt P03952); assay: Plasma Kallikrein Assay; assay type: biochemical; details: purified Human plasma kallikrein 0.5 nM, substrate Acetyl-K-P-R-AFC, pH 7.4
T1 construct: yields a heavy chain (371 amino acids) and a light chain (248 amino acids); purchased Enzyme Research Laboratories
T1 sequence (P03952 391-638 limits assumed): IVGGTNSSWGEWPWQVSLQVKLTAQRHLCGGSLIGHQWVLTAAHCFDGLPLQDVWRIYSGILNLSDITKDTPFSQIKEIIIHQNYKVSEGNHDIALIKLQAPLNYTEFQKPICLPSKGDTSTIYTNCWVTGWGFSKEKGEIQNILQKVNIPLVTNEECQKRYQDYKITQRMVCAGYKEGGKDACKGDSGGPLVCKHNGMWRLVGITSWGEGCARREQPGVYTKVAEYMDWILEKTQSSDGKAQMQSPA
T1 sequence (P03952 20-390 partner limits assumed): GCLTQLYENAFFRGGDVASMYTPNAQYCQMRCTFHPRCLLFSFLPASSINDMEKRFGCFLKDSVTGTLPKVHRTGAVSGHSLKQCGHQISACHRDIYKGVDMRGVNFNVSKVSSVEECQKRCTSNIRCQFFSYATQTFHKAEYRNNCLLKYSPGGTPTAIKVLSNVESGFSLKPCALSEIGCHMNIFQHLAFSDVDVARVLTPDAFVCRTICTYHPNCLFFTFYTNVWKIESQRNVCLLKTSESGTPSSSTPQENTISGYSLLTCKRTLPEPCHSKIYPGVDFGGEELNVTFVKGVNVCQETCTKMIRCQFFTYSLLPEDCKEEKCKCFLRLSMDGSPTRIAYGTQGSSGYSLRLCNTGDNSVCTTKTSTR
Description: The effectiveness of a compound of the present invention as an inhibitor of plasma kallikrein can be determined using a relevant purified serine protease, and an appropriate synthetic substrate. The rate of hydrolysis of the chromogenic or fluorogenic substrate by the relevant serine protease was measured both in the absence and presence of compounds of the present invention. Assays were conducted at rt or at 37° C. […] A decrease in the rate of fluorescence change in the presence of inhibitor is indicative of enzyme inhibition. Such methods are known to one skilled in the art. The results of this assay are expressed as the half-maximal inhibitory concentrations (IC50), or the inhibitory constant, Ki.
Plasma kallikrein determinations were made in 50 mM HEPES buffer at pH 7.4 containing 150 mM NaCl, 5 mM CaCl2), and 0.1% PEG 8000 (polyethylene glycol; Fisher Scientific). […]
Times required to achieve equilibration between enzyme and inhibitor were determined in control experiments. The reactions were performed under linear progress curve conditions and fluorescence increase measured at 405 Ex/510 Em nm. […] IC50 was determined by inflection point from a four parameter logistic curve fit. Ki was calculated using the Cheng Prusoff equation, Ki=IC50/(1+([S]/Km)).

Compound	IC50
O=C(Nc1cnn(Cc2ccc(N3CCCC3CO)nc2)c1)c1cncc(-c2c(C(F)F)ccc(Cl)c2F)n1 (stereo not shown) [Example 118, 6-(3-Chloro-6-(difluoromethyl)-2-fluorophenyl)-N-(1-((6-(2-(hydroxymethyl)pyrrolidin-1-yl)pyridin-3-yl)methyl)-1H-pyrazol-4-yl)pyrazine-2-carboxamide]	0.0125 µM
NC(=O)C1CCCN(c2ccc(Cn3cc(NC(=O)c4cncc(-c5c(C(F)F)ccc(Cl)c5F)n4)cn3)cn2)C1 (stereo not shown) [Example 129, N-(1-((6-(3-Carbamoylpiperidin-1-yl)pyridin-3-yl)methyl)-1H-pyrazol-4-yl)-6-(3-chloro-6-(difluoromethyl)-2-fluorophenyl)pyrazine-2-carboxamide]	0.0328 µM
O=C(Nc1cnn(Cc2cnc(N3CCCC3CO)nc2)c1)c1cncc(-c2c(C(F)F)ccc(Cl)c2F)n1 (stereo not shown) [Example 113, 6-(3-Chloro-6-(difluoromethyl)-2-fluorophenyl)-N-(1-((2-(2-(hydroxymethyl)pyrrolidin-1-yl)pyrimidin-5-yl)methyl)-1H-pyrazol-4-yl)pyrazine-2-carboxamide]	0.0651 µM
O=C(Nc1cnn(C2CCc3nc(N4CCC4)ccc32)c1)c1cncc(-c2c(C(F)F)ccc(Cl)c2F)n1 (single isomer, unassigned) [Example 35, (S or R)-N-(1-(2-(azetidin-1-yl)-6,7-dihydro-5H-cyclopenta[b]pyridin-5-yl)-1H-pyrazol-4-yl)-6-(3-chloro-6-(difluoromethyl)-2-fluorophenyl)pyrazine-2-carboxamide]	0.0332 µM
CC(c1cnc(N(CCO)Cc2ccccn2)nc1)n1cc(NC(=O)c2cncc(-c3c(C(F)F)ccc(Cl)c3F)n2)cn1 (stereo not shown) [Example 85, 6-(3-Chloro-6-(difluoromethyl)-2-fluorophenyl)-N-(1-(1-(2-((2-hydroxyethyl)(pyridin-2-ylmethyl)amino)pyrimidin-5-yl)ethyl)-1H-pyrazol-4-yl)pyrazine-2-carboxamide]	0.0118 µM
O=C(Nc1cnn(Cc2ccc(N3CCC4OCCC43)nc2)c1)c1cncc(-c2c(C(F)F)ccc(Cl)c2F)n1 (single isomer, unassigned) [Example 122, 6-(3-Chloro-6-(difluoromethyl)-2-fluorophenyl)-N-(1-((6-((3aR,6aR or 3aS,6aS)-hexahydro-4H-furo[3,2-b]pyrrol-4-yl)pyridin-3-yl)methyl)-1H-pyrazol-4-yl)pyrazine-2-carboxamide]	0.0195 µM
Cn1cnc(C2CCCN2c2ccc(Cn3cc(NC(=O)c4cncc(-c5c(C(F)F)ccc(Cl)c5F)n4)cn3)cn2)n1 (stereo not shown) [Example 130, 6-(3-Chloro-6-(difluoromethyl)-2-fluorophenyl)-N-(1-((6-(2-(1-methyl-1H-1,2,4-triazol-3-yl)pyrrolidin-1-yl)pyridin-3-yl)methyl)-1H-pyrazol-4-yl)pyrazine-2-carboxamide]	0.035 µM
O=C(Nc1cnn(Cc2ccc(N3CC4CCC(C3)N4)nc2)c1)c1cncc(-c2c(C(F)F)ccc(Cl)c2F)n1 [Example 204, N-(1-((6-(3,8-Diazabicyclo[3.2.1]octan-3-yl)pyridin-3-yl)methyl)-1H-pyrazol-4-yl)-6-(3-chloro-6-(difluoromethyl)-2-fluorophenvl)pyrazine-2-carboxamide]	0.0175 µM
CN(CCN1CCCC1)c1ccc(Cn2cc(NC(=O)c3cncc(-c4c(C(F)F)ccc(Cl)c4F)n3)cn2)cn1 [Example 114, 6-(3-Chloro-6-(difluoromethyl)-2-fluorophenyl)-N-(1-((6-(methyl(2-(pyrrolidin-1-yl)ethyl)amino)pyridin-3-yl)methyl)-1H-pyrazol-4-yl)pyrazine-2-carboxamide]	0.0027 µM
O=C(Nc1cnn(Cc2cnc(N3CCCC3Cn3ccnc3)nc2)c1)c1cncc(-c2c(C(F)F)ccc(Cl)c2F)n1 (stereo not shown) [Example 109, N-(1-((2-(2-((1H-Imidazol-1-yl)methyl)pyrrolidin-1-yl)pyrimidin-5-yl)methyl)-1H-pyrazol-4-yl)-6-(3-chloro-6-(difluoromethyl)-2-fluorophenyl)pyrazine-2-carboxamide]	0.0459 µM
O=C(Nc1cnn(Cc2ccc(N3CCC4OCCC43)nc2)c1)c1cncc(-c2c(C(F)F)ccc(Cl)c2F)n1 (stereo not shown) [Example 117, 6-(3-Chloro-6-(difluoromethyl)-2-fluorophenyl)-N-(1-((6-(hexahydro-4H-furo[3,2-b]pyrrol-4-yl)pyridin-3-yl)methyl)-1H-pyrazol-4-yl)pyrazine-2-carboxamide]	0.0054 µM
O=C(Nc1cnn(Cc2cnc(N3CCC3)nc2)c1)c1nc(-c2c(C(F)F)ccc(Cl)c2F)cnc1O [Example 20, N-(1-((2-(Azetidin-1-yl)pyrimidin-5-yl)methyl)-1H-pyrazol-4-yl)-6-(3-chloro-6-(difluoromethyl)-2-fluorophenyl)-3-hydroxypyrazine-2-carboxamide]	0.0154 µM
O=C(Nc1cnn(Cc2ccc(N3CC[C@@H]3CO)nc2)c1)c1cncc(-c2c(C(F)F)ccc(Cl)c2F)n1 [Example 68, (R)-6-(3-Chloro-6-(difluoromethyl)-2-fluorophenyl)-N-(1-((6-(2-(hydroxymethyl)azetidin-1-yl)pyridin-3-yl)methyl)-1H-pyrazol-4-yl)pyrazine-2-carboxamide]	0.0263 µM

The next lines start with the values.

IC50	Compound
0.005 µM	O=C(Nc1cnn(Cc2cnc(N3CCC4OCCC43)nc2)c1)c1cncc(-c2c(C(F)F)ccc(Cl)c2F)n1 (stereo not shown) [Example 75, 6-(3-Chloro-6-(difluoromethyl)-2-fluorophenyl)-N-(1-((2-(hexahydro-4H-furo[3,2-b]pyrrol-4-yl)pyrimidin-5-yl)methyl)-1H-pyrazol-4-yl)pyrazine-2-carboxamide]
0.153 µM	Cc1cc(N2CCC2)ncc1[C@@H](C)n1cc(NC(=O)c2cncc(-c3c(C(F)F)ccc(Cl)c3F)n2)cn1 (single isomer, unassigned) [Example 67]
0.0025 µM	CC(c1cnc(N(C)CC(=O)N(C)C)nc1)n1cc(NC(=O)c2cncc(-c3c(C(F)F)ccc(Cl)c3F)n2)cn1 (stereo not shown) [Example 72, 6-(3-Chloro-6-(difluoromethyl)-2-fluorophenyl)-N-(1-(1-(2-((2-(dimethylamino)-2-oxoethyl)(methyl)amino)pyrimidin-5-yl)ethyl)-1H-pyrazol-4-yl)pyrazine-2-carboxamide]
0.0176 µM	CC1C2CC2CN1c1ncc(C(CO)n2cc(NC(=O)c3cncc(-c4c(C(F)F)ccc(Cl)c4F)n3)cn2)cn1 (single isomer, unassigned) [Example 49, 6-(3-Chloro-6-(difluoromethyl)-2-fluorophenyl)-N-(1-((R or S)-2-hydroxy-1-(2-((1S,2R,5R or 1R,2S, 5S)-2-methyl-3-azabicyclo[3.1.0]hexan-3-yl)pyrimidin-5-yl)ethyl)-1H-pyrazol-4-yl)pyrazine-2-carboxamide]
0.0313 µM	O=C(Nc1cnn(Cc2cnc(N3CCC4OCCC43)nc2)c1)c1cncc(-c2c(C(F)F)ccc(Cl)c2F)n1 (single isomer, unassigned) [Example 103, 6-(3-Chloro-6-(difluoromethyl)-2-fluorophenyl)-N-(1-((2-((3aS,6aS or 3aR,6aR)-hexahydro-4H-furo[3,2-b]pyrrol-4-yl)pyrimidin-5-yl)methyl)-1H-pyrazol-4-yl)pyrazine-2-carboxamide]
0.0015 µM	CC(c1cnc(N2CC[C@H]2[C@@H](C)N2CC[C@H](O)[C@@H]2C)nc1)n1cc(NC(=O)c2cncc(-c3c(C(F)F)ccc(Cl)c3F)n2)cn1 (stereo partly drawn) [Example 185, 6-(3-Chloro-6-(difluoromethyl)-2-fluorophenyl)-N-(1-(1-(2-((S)-2-((R)-1-((2S,3S)-3-hydroxy-2-methylpyrrolidin-1-yl)ethyl)azetidin-1-yl)pyrimidin-5-yl)ethyl)-1H-pyrazol-4-yl)pyrazine-2-carboxamide]
0.0061 µM	CC(c1cnc(N2CC[C@H]2CN[C@H](C)C(C)(C)O)nc1)n1cc(NC(=O)c2cncc(-c3c(C(F)F)ccc(Cl)c3F)n2)cn1 (stereo partly drawn) [Example 182, 6-(3-Chloro-6-(difluoromethyl)-2-fluorophenyl)-N-(1-(1-(2-((S)-2-((((R)-3-hydroxy-3-methylbutan-2-yl)amino)methyl)azetidin-1-yl)pyrimidin-5-yl)ethyl)-1H-pyrazol-4-yl)pyrazine-2-carboxamide]
0.0034 µM	CC(c1cnc(N2CC[C@H]2CN2C[C@H](O)C[C@H]2C)nc1)n1cc(NC(=O)c2cncc(-c3c(C(F)F)ccc(Cl)c3F)n2)cn1 (stereo partly drawn) [Example 164, 6-(3-Chloro-6-(difluoromethyl)-2-fluorophenyl)-N-(1-(1-(2-((S)-2-(((2R,4R)-4-hydroxy-2-methylpyrrolidin-1-yl)methyl)azetidin-1-yl)pyrimidin-5-yl)ethyl)-1H-pyrazol-4-yl)pyrazine-2-carboxamide]
0.0012 µM	CC(c1cnc(N2CC[C@H]2[C@@H](C)N2C[C@@H](O)[C@H](F)C2)nc1)n1cc(NC(=O)c2cncc(-c3c(C(F)F)ccc(Cl)c3F)n2)cn1 (stereo partly drawn) [Example 189, 6-(3-Chloro-6-(difluoromethyl)-2-fluorophenyl)-N-(1-(1-(2-((S)-2-((R)-1-((3R,4R)-3-fluoro-4-hydroxypyrrolidin-1-yl)ethyl)azetidin-1-yl)pyrimidin-5-yl)ethyl)-1H-pyrazol-4-yl)pyrazine-2-carboxamide]
